# Measured values reported in patent publication US20020119958A1, “Therapeutic agent for hyperlipidemia” (priority 2001, published 2002).
# Columns and labels:
# CYP7A gene = assay: Northern blot of CYP7A gene expression in hamster liver; assay type: in vivo; details: 14 days
# Procedure: (§1) Male Syrian Golden Hamsters (7 weeks old) were purchased from Japan SLC and preliminarily reared for 2 weeks under a high fat diet load (10% coconut oil, 0.12% cholesterol). After the preliminary rearing, the high fat diet was fed to the hamsters while administering compound A. The drug was prepared into a 0.5% methylcellulose suspension, and forcibly administered orally at 30 or 100 mg/kg/day for 14 consecutive days. At 4, 7, 11 and 14 days from the drug administration, blood was drawn from the orbital vein of the animal and total serum cholesterol value was measured. As a control, a drug non-administration group was prepared and treated similarly, which was followed by measurement of the serum total cholesterol value. At the final day of the test, the liver and the ileum were removed from the animals, from which the total RNA was prepared.
# (§2) The total RNA was prepared from animal tissues by AGPC method. The prepared total RNA was electrophoresed on an agarose gel containing 6% formaldehyde and transferred onto a nylon membrane by a capillary blotting method. This membrane was hybridized with ^32P-labeled hamster CYP7A or I-BABP probe in 50% formamide at 42° C. for 16 h and the amounts of CYP7A and I-BABP gene expressions were measured. The CYP7A and I-BABP probes were prepared by RT-PCR method from RNA derived from the liver and the ileum, respectively, of the hamsters.
# [1] = tested on: LXR (liver X receptor) ligand binding domain (LXR-LBD); assay: FRET assay with LXR-LBD instead of FXR-LBD (test for comparison); assay type: biochemical; details: up to 50 μM
# Procedure: (§3) An Eu-labeled FXR ligand binding domain (FXR-LBD) and an APC-labeled coactivator SRC-1 were mixed to the final concentration of 10 nM and 100 nM, respectively, in a buffer [100 mM Hepes (pH 7.6), 0.125% CHAPS, 125 mM NaF] in the presence of ligand CDCA. Thereto were added various concentrations of compound A (1-50 μM), and the mixture was allowed to react at 4° C. for 12 h. After the reaction, it was exposed to an excitation light at 337 nm and the fluorescence at 665 nm and 620 nm was measured, based on which the fluorescence ratio of 665 nm/620 nm was taken as an FRET fluorescence intensity.
# At a concentration of not less than 1 μM, compound A inhibited the binding between FXR-LBD and SRC-1 induced in the presence of CDCA (attenuation of FRET fluorescent intensity). For a test for comparison, a similar experiment was conducted using LXR (liver X receptor) ligand binding domain (LXR-LBD) instead of FXR-LBD.
# [2] = Concentration in blood after single oral administration to hamster; assay type: in vivo; details: male, GS, single oral 100 mg/kg, serum
# Procedure: The compound A was forcibly given to hamster by single oral administration and measured for shifts in the concentration in blood. The test conditions were as follows. animal: male GS hamster (purchased from Japan SLC), 9 weeks old administration liquid: 20 mg/ml 0.5% methylcellulose suspension diet: not fasted dose: 100 mg/5 ml/kg (p.o.) administration: forcible single oral administration using oral sound blood sampling time: 5, 15, 30, 60, 180, 360 min after administration serum preparation: blood was drawn from the orbital vein and centrifuged using a Separapid tube (coagulation promoting spitz tube containing serum separating agent) to give serum.
# An internal standard substance (CV-5386, 0.1 μg) was added to serum (0.1 ml) and admixed. Methanol (0.3 ml) was added and the mixture was stirred. The mixture was centrifuged at 10,000 rpm (FORCE-7 Denver Instrument Company) for 2 min and the resulting supernatant was subjected to centrifugal filtration using Centricut. The obtained filtrate was analyzed by LC-ESI-MS/MS.
# [3] = Serum total cholesterol in hamsters on high fat diet; assay type: in vivo, hamster; details: 14 days, last day of the test
# Procedure: as §1
# The blood was drawn from the orbital vein of the animals and centrifuged (3000 rpm, 15 min) to prepare the serum. The total cholesterol concentration of the serum was determined by the enzyme method.
# HepG2 cells = assay: Excretion of bile acid from HepG2 cells; assay type: cell-based, human; details: compound A 1, 10 μM, 24 h
# Procedure: The cultured HepG2 cells were plated in a 24-well culture dish at 1.5×10^5 cells/ml, 0.5 ml/well. Four days later, the medium was exchanged to a new one and ^14C-labeled cholesterol (18.5 kBq/well) was added, which was cultured for 24 h (bile acid in the cells was labeled thereby). After the culture, the medium was exchanged to a new one and compound A (final concentration 1, 10 μM) was added. After 24 hours of culture, the medium was recovered and the amount of bile acid excreted into the medium was measured to examine the influence of compound A on bile acid excretion. The amount of excreted bile acid was corrected based on the protein amount of the cell.
# [4] = tested on: CYP7A gene expression in HepG2 cells; assay: CYP7A mRNA in HepG2 cells by quantitative RT-PCR; assay type: cell-based, human; details: CDCA 20 μM + compound A 10 μM, 37° C., 16 h
# Procedure: (§4) The cultured HepG2 cells were treated under the following three conditions at 37° C. for 16 h.
# (§5) 1) no treatment with CDCA, no treatment with compound A
# (§6) 2) treatment with CDCA (20 μM), no treatment with compound A
# 3) treatment with CDCA (20 μM), treatment with compound A (10 μM)
# RNA was prepared from the cells after the treatment and the amount of CYP7A mRNA contained in the RNA was measured by quantitative RT-PCR. For the quantitative RT-PCR, TaqMan One Step Gold reverse transcriptase PCR kit of Applied Biosystems/PerkinElmer was used. For quantification, the following primers (i)-(iii) derived from human CYP7A gene sequence were used.
# [5] = tested on: CYP7A protein in HepG2 cells; assay: CYP7A protein in HepG2 cells by Western blot; assay type: cell-based, human; details: CDCA 20 μM, compound A 0.03-10 μM, 16 h
# Procedure: as §4, §5, §6
# 3) treatment with CDCA (20 μM), treatment with compound A (0.03, 0.1, 0.3, 1, 3, 10 μM)
# After the treatment, the cells were recovered and lysed in a lysis buffer (125 mM Tris HCl (pH 8.0), 2 mM CaCl2, 2% Triton X-100) to prepare a cell lysate. The cell lysate was fractionated by SDS-PAGE, and the protein was transferred onto a PVDF membrane. The CYP7A protein was detected by Western blot analysis using an anti CYP7A antibody and an HRP (horse-radish peroxidase) conjugated 2nd antibody.
# I-BABP gene = assay: Northern blot of I-BABP gene expression in hamster ileum; assay type: in vivo; details: 14 days
# Procedure: as §1, §2
# [6] = target: T1, FXR ligand binding domain (FXR-LBD) (Homo sapiens, UniProt Q96RI1); assay: FRET assay of CDCA-induced binding of FXR-LBD to coactivator SRC-1; assay type: biochemical; details: in the presence of CDCA; compound A 1-50 μM; 4° C., 12 h
# T1 construct: GST
# T1 sequence (Q96RI1 262-486 limits assumed): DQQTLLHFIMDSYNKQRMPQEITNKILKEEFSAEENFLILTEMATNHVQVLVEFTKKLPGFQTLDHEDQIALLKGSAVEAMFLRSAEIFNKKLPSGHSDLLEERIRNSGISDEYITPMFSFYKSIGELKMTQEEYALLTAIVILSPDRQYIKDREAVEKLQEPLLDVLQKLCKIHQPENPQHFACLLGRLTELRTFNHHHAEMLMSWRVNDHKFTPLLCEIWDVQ
# Procedure: as §3
# [7] = tested on: I-BABP gene expression in Caco-2 cells; assay: I-BABP mRNA in Caco-2 cells by Northern blot; assay type: cell-based, human; details: 100 μM CDCA, compound A at 10 μM
# Procedure: The human colon carcinoma derived cell line, Caco-2, is a cell line differentiated like the small intestine and expresses the I-BABP gene. The I-BABP gene expression in Caco-2 cells is promoted by CDCA and an expression control system of I-BABP gene by FXR is considered to be also present in Caco-2 cells (Makishima, M. et al. Science 284, 1362-5 (1999)). Thus, an action on the I-BABP gene expression of compound A as an FXR antagonist was tested using Caco-2 cells.
# The Caco-2 cells were cultured in the presence of 100 μM CDCA, and the expression of I-BABP gene was induced. Thereto was added compound A and changes in the I-BABP gene expression level were examined by measuring the amount of I-BABP mRNA by Northern blot analysis.
# LXR = assay: Luciferase reporter gene transcription via LXR (test for comparison); assay type: cell-based; details: up to the concentration of 10 μM
# Procedure: (§7) A plasmid for compulsory expression of FXR, a luciferase reporter plasmid and a β-galactosidase expression plasmid for correction of gene transfer were introduced into cultured mammalian cells (293 or CV-1) by conventional methods. The cells after gene transfer were treated with CDCA and compound A. Cell lysates were prepared from the cells that underwent treatment with various concentrations of compound A (0.1-10 μM), and a luciferase activity (corrected based on β-galactosidase activity) in the cell lysate was expressed as an FXR dependent transcriptional activity. In the absence of a drug, the luciferase activity value upon activation with CDCA was taken as 100% and the value in the absence of a ligand was taken as 0%. For a test for comparison, a similar experiment was conducted using an LXR expression plasmid instead of the FXR expression plasmid.
# FXR = target: T2, FXR (Homo sapiens, UniProt Q96RI1); assay: CDCA-induced luciferase reporter gene transcription via FXR; assay type: cell-based; details: 293 or CV-1 cells treated with CDCA; compound A 0.1-10 μM
# T2 construct: expressed in transfected cells; host or cells: 293 or CV-1
# T2 sequence (Q96RI1 1-486): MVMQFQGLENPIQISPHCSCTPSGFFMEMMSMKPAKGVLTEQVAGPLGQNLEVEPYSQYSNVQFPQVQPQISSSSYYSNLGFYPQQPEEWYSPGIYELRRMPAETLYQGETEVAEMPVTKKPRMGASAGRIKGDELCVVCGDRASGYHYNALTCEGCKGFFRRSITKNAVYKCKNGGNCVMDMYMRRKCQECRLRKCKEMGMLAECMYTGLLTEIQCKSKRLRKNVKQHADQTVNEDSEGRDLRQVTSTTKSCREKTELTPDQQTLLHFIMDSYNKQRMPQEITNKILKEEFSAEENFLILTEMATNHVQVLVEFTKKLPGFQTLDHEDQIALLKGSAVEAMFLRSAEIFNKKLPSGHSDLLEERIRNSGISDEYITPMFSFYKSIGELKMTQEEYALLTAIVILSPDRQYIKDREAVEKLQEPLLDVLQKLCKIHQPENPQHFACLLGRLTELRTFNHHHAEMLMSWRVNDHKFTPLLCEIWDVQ
# Procedure: as §7
compound,measurement,setting,value
"CC(C)(C)c1cc(C(C)(C)C)c(O)c(NC(=O)c2ccccc2)c1O [compound A, N-(3,5-di-tert-butyl-2,6-dihydroxyphenyl)benzamide]",increase in mRNA level of the CYP7A gene in the liver relative to the drug non-administration group,CYP7A gene; 30 mg/kg/day p.o.,53%
same,increase in mRNA level of the CYP7A gene in the liver relative to the drug non-administration group,CYP7A gene; 100 mg/kg/day p.o.,27%
same,effect on FRET fluorescent intensity with LXR-LBD,[1],did not affect the fluorescent intensity
same,Cmax,[2],2010 ng/mL
same,Tmax,[2],6 h
same,percent decrease in serum total cholesterol relative to the drug non-administration group,[3]; 30 mg/kg/day p.o.,28%
same,percent decrease in serum total cholesterol relative to the drug non-administration group,[3]; 100 mg/kg/day p.o.,32%
same,excretion of bile acid into the medium,HepG2 cells,promoted the excretion of bile acid
same,"amount of CYP7A mRNA (no CDCA = 100, 20 μM CDCA = 0)",[4],58
same,CYP7A protein (Western blot),[5],Accumulation of CYP7A protein
same,decrease in mRNA level of the I-BABP gene in the ileum relative to the drug non-administration group,I-BABP gene; 30 mg/kg/day p.o.,11%
same,decrease in mRNA level of the I-BABP gene in the ileum relative to the drug non-administration group,I-BABP gene; 100 mg/kg/day p.o.,16%
same,concentration at which the binding between FXR-LBD and SRC-1 was inhibited (attenuation of FRET fluorescent intensity),[6],not less than 1 μM
same,mRNA level of I-BABP (Northern blot),[7],marked decrease
same,effect on transcription activity dependent on LXR,LXR,did not influence the transcription activity
same,concentration at which FXR dependent transcription was repressed,FXR,not less than 1 μM
